# Patent US20240254109A1, “SALT CONTAINING PIPERAZINE POLYCYCLIC DERIVATIVE, CRYSTAL FORM THEREOF, PREPARATION METHOD THEREFOR, AND USE THEREOF” (Shanghai Hansoh Biomedical Co., Ltd., priority 2021, published 2024)
# Assays:
# Format in all cases: physicochemical
# [1] = Study on the crystal form of salt of compound (crystallization with counter ion acids); conditions: for Phenomenon after the addition of acid / Results: volatilization method; for Phenomenon after the addition of acid: crystal form B of free base in tetrahydrofuran, base: acid=1:1.2; for Results: tetrahydrofuran volatilized at room temperature; for Phenomenon: base: acid=1:1.2, 25° C.
# Procedure: To identify which counter ion acids can form crystal form of salt of compound by selecting different counter ion acids according to suitable crystallization methods.
# 1 mL of the solution was taken into a glass bottle, and different counter ion acids (molar reaction ratio of base: acid=1:1.2) were added, and then the glass bottle was opened at room temperature to volatile solvent. The amorphous or oily was pulped with 200 μL of ethyl acetate.
# 1) 10 mg of crystal form B of free base was weighed, and 200 μL of methanol solvent was added, and counter ion acid (molar reaction ratio of base: acid=1:1.2) was added respectively at 25° C.
# 2) 85 mg of crystal form B of free base was weighed, and ethyl acetate was added to produce a clear solution. Different counter ion acids (molar reaction ratio of base: acid=1:1.2) were added respectively at 25° C.
# [2] = Study on the salt form of compound (salt forming with counter ion acids); conditions: for Phenomenon after the addition of acid: acid 1:1.2, room temperature
# Procedure: To identify which counter ion acids can form salts with the compound by selecting different counter ion acids.
# 10 mg of free base was weighed. 200 μL of tetrahydrofuran was added. Different counter ion acids were added separately at room temperature, and the solvent was volatilized to dry. If a solid was precipitated during the reaction, the suspension was centrifuged, and the resulting solid was vacuum dried at 50° C. […] The resulting suspension was centrifuged and the supernatant was removed. The solid was dried in vacuum at 50° C.
# 10 mg of free base was weighed, and 200 μL of acetone was added. Different counter ion acids were added separately at room temperature, and the solvent was volatilized to dry. If a solid was precipitated, the resulting solid was dried in vacuum overnight at 50° C. […] The resulting suspension was centrifuged, and the supernatant was removed. The solid was dried in vacuum at 50° C.
# 10 mg of free base compound was weighed, and 100 μL of organic solvent was added to the suspension state. The corresponding acid was added according to the molar ratio of 1:1.2 at room temperature, and the reaction was stirred for 4d. The reaction was centrifuged, and the resulting solid was dried in vacuum at 50° C.
# [3] = Stability study of salt (5 days and 10 days, HPLC related substances)
# Procedure: 2.1.3 Stability Study of Salt
# Hydrochloride and p-toluenesulfonate of N-(trans-3-(2-(4-(2,3-dichlorophenyl)piperazin-1-yl)ethyl)cyclobutyl)oxazole-2-carboxamide were weighed about 1 mg, respectively, and then placed under light (5000 lux), high temperature (60° C.), high humidity (92.50 RH), high temperature and high humidity (50° C. and 75% RH) for 5 days and 10 days, then a diluent DMSO was added to prepare a solution with salt concentration of about 1 mg/mL.
# The chromatographic peak area normalization method was used to calculate the changes of related substances.
# [4] = Hygroscopicity study of salt (DVS)
# Text: 2.1.4 Hygroscopicity Study of Salt
# The hygroscopicity of a drug refers to the characteristics of the drug's ability or degree of water absorption at a certain temperature and humidity. […] (DVS) was used to characterize the ability of drugs to absorb water under different humidity conditions. The instrument parameters are detailed in the table below.
# [5] = Solubility of hydrochloride in different media; conditions: 37° C.
# Procedure: 2.1.5 Solubility of Hydrochloride in Different Media
# 1.0 mg of compound was weighed into a 2 mL glass bottle, then 1 mL of dissolving medium was added respectively. The glass bottle was shaken overnight on an electrothermal constant temperature shaking tank, and the temperature was set to 37° C. After 24 hours, the sample solution was filtered with a […] mixed water fiber filter membrane, and the subsequent filtrate was taken to test its content by HPLC. HPLC detection methods are described in “Stability Study Conditions”.
# [6] = Crystal form stability study of hydrochloride for 30 days
# Procedure: 9. Crystal Form Stability Study of Hydrochloride for 30 Days
# The 30 days stability of hydrochloride of N-(trans-3-(2-(4-(2,3-dichlorophenyl)piperazin-1-yl)ethyl)cyclobutyl)oxazole-2-carboxamide under four conditions of 60° C. (closed), 40° C. & RH 75% (open), 25° C./RH 92.5% (open) and light (5000±500 Lux) was detected, which provided scientific basis for the production, packaging, storage and transportation conditions of drugs.
# The diluent 80% methanol solution was added to prepare a solution containing about 0.5 mg/mL hydrochloride. The mixture was sonicated for 30 min to produce a clear solution. 1 mL of the solution was filtered and measured by HPLC. See “2.3.4” for the HPLC analysis method. The content of related substances was calculated according to the peak area normalization method, and the results are shown in Table 32 below.
# [7] = free base suspended in 100 μL Isopropanol
# [8] = free base suspended in 100 μL Isopropanol, acid 1:1.2, stirred 4d
# [9] = GWGS-5 d (high temperature and high humidity)
# [10] = GWGS-10 d (high temperature and high humidity)
# [11] = high temperature, light, high humidity, high temperature and high humidity, 5 and 10 days
# [12] = WS-30 d (high temperature and high humidity)
smiles,measurement,setting,value
CC(=O)O [1.0M acetic acid (in methanol)],Phenomenon after the addition of acid,[1],Clear
same,Results,[1],Oil or gel
Br [1.0M hydrobromic acid (in methanol)],Phenomenon after the addition of acid,[1],Clear
same,Results,[1],Oil or gel
Cl [1.0M hydrochloric acid (in methanol)],Phenomenon,[1]; solvent 2-Butanone,Clear
same,Phenomenon,[1]; solvent 2-Methyl-tetrahydrofuran,Suspension
same,Phenomenon,[1]; solvent Acetone,Suspension
same,Phenomenon,[1]; solvent Ethanol,Clear
same,Phenomenon,[1]; solvent Ethyl acetate,Suspension
same,Phenomenon,[1]; solvent Ethyl formate,Precipitation
same,Phenomenon,[1]; solvent Isopropanol,Suspension
same,Phenomenon,[1]; solvent Isopropyl acetate,Suspension
same,Phenomenon,[1]; solvent Methyl tert-butyl ether,Suspension
same,Phenomenon after the addition of acid,[1],Clear
same,Results,[1],Oil or gel
CS(=O)(=O)O [1.0M methanesulfonic acid (in ethanol)],Phenomenon after the addition of acid,[1],Clear
same,Results,[1],Oil or gel
CC(=O)O [1M acetic acid in methanol],Phenomenon,[1]; solvent Isopropanol,Turbid
same,Phenomenon,[1]; solvent Isopropyl ether,Turbid
CC(=O)O [Acetic acid],Phenomenon after the addition of acid,[2]; [7],muddy
same,Product,[2]; [8],Salt forming
O=C(O)/C=C/C(=O)O [Fumaric acid],Phenomenon after the addition of acid,[2]; [7],muddy
same,Product,[2]; [8],Salt forming
CS(=O)(=O)O [Methanesulfonic acid (1 mol/L in EtOH)],Product,[2]; acetone volatilized to dry,Gel
same,After adding 200 μL of ethyl acetate,[2]; stirred 4 hours at room temperature,Gel
"Cl.O=C(N[C@H]1C[C@H](CCN2CCN(c3cccc(Cl)c3Cl)CC2)C1)c1ncco1 [N-(trans-3-(2-(4-(2,3-dichlorophenyl)piperazin-1-yl)ethyl)cyclobutyl)oxazole-2-carboxamide hydrochloride]",RRT 1.000 Area %,[3]; 0 d,99.619%
same,RRT 1.050 Area %,[3]; 0 d,0.153%
same,RRT 1.200 Area %,[3]; 0 d,0.163%
same,RRT 1.550 Area %,[3]; 0 d,0.065%
same,total Area % (related substances),[3]; 0 d,0.381%
same,RRT 0.220 Area %,[3]; GS-5 d (high humidity),0.055%
same,RRT 1.000 Area %,[3]; GS-5 d (high humidity),99.556%
same,RRT 1.050 Area %,[3]; GS-5 d (high humidity),0.160%
same,RRT 1.200 Area %,[3]; GS-5 d (high humidity),0.161%
same,RRT 1.550 Area %,[3]; GS-5 d (high humidity),0.069%
same,total Area % (related substances),[3]; GS-5 d (high humidity),0.444%
same,RRT 1.000 Area %,[3]; GS-10 d (high humidity),99.619%
same,RRT 1.050 Area %,[3]; GS-10 d (high humidity),0.153%
same,RRT 1.200 Area %,[3]; GS-10 d (high humidity),0.163%
same,RRT 1.550 Area %,[3]; GS-10 d (high humidity),0.065%
same,total Area % (related substances),[3]; GS-10 d (high humidity),0.381%
same,RRT 1.000 Area %,[3]; GW-5 d (high temperature),99.604%
same,RRT 1.050 Area %,[3]; GW-5 d (high temperature),0.164%
same,RRT 1.200 Area %,[3]; GW-5 d (high temperature),0.163%
same,RRT 1.550 Area %,[3]; GW-5 d (high temperature),0.068%
same,total Area % (related substances),[3]; GW-5 d (high temperature),0.396%
same,RRT 1.000 Area %,[3]; GW-10 d (high temperature),99.590%
same,RRT 1.050 Area %,[3]; GW-10 d (high temperature),0.170%
same,RRT 1.200 Area %,[3]; GW-10 d (high temperature),0.163%
same,RRT 1.550 Area %,[3]; GW-10 d (high temperature),0.077%
same,total Area % (related substances),[3]; GW-10 d (high temperature),0.410%
same,RRT 1.000 Area %,[3]; [9],99.603%
same,RRT 1.050 Area %,[3]; [9],0.144%
same,RRT 1.200 Area %,[3]; [9],0.165%
same,RRT 1.550 Area %,[3]; [9],0.088%
same,total Area % (related substances),[3]; [9],0.397%
same,RRT 1.000 Area %,[3]; [10],99.614%
same,RRT 1.050 Area %,[3]; [10],0.157%
same,RRT 1.200 Area %,[3]; [10],0.161%
same,RRT 1.550 Area %,[3]; [10],0.067%
same,total Area % (related substances),[3]; [10],0.386%
same,RRT 1.000 Area %,[3]; GZ-5 d (light),99.617%
same,RRT 1.050 Area %,[3]; GZ-5 d (light),0.148%
same,RRT 1.200 Area %,[3]; GZ-5 d (light),0.160%
same,RRT 1.550 Area %,[3]; GZ-5 d (light),0.075%
same,total Area % (related substances),[3]; GZ-5 d (light),0.383%
same,RRT 1.000 Area %,[3]; GZ-10 d (light),99.604%
same,RRT 1.050 Area %,[3]; GZ-10 d (light),0.162%
same,RRT 1.200 Area %,[3]; GZ-10 d (light),0.158%
same,RRT 1.550 Area %,[3]; GZ-10 d (light),0.077%
same,total Area % (related substances),[3]; GZ-10 d (light),0.396%
same,growth of impurities,[3]; [11],no significant growth of impurities
same,stability of salt,[3]; [11],good stability
same,hygroscopicity (DVS),[4],slightly hygroscopic
same,solubility in different pH buffers (dependence),[5]; 24 hours,pH-dependent
same,solubility,[5]; acidic conditions,better solubility
same,solubility,[5]; neutral or alkaline conditions,poor solubility
same,solubility in water compared with free base,[5]; water,greatly improved
same,RRT 1.00 Area %,[6]; 0 d,99.44%
same,RRT 1.07 Area %,[6]; 0 d,0.07%
same,RRT 1.93 Area %,[6]; 0 d,0.42%
same,RRT 2.43 Area %,[6]; 0 d,0.07%
same,RRT 1.00 Area %,[6]; GS-30 d (high humidity),99.43%
same,RRT 1.07 Area %,[6]; GS-30 d (high humidity),0.11%
same,RRT 1.93 Area %,[6]; GS-30 d (high humidity),0.39%
same,RRT 2.43 Area %,[6]; GS-30 d (high humidity),0.07%
same,RRT 1.00 Area %,[6]; GW-30 d (high temperature),99.51%
same,RRT 1.07 Area %,[6]; GW-30 d (high temperature),0.08%
same,RRT 1.93 Area %,[6]; GW-30 d (high temperature),0.41%
same,RRT 1.00 Area %,[6]; GZ-30 d (light),99.43%
same,RRT 1.07 Area %,[6]; GZ-30 d (light),0.09%
same,RRT 1.93 Area %,[6]; GZ-30 d (light),0.41%
same,RRT 2.43 Area %,[6]; GZ-30 d (light),0.08%
same,RRT 1.00 Area %,[6]; [12],99.46%
same,RRT 1.07 Area %,[6]; [12],0.09%
same,RRT 1.93 Area %,[6]; [12],0.38%
same,RRT 2.43 Area %,[6]; [12],0.07%
